{"source": "ChEMBL document CHEMBL1201862", "about": "“PubChem BioAssay data set” (2004)", "key": {"[1]": {"assay": "Luminescence Cell-Based Dose Retest to Confirm Inhibitors of Cancer Stem Cells. [Related pubchem assays (depositor defined):AID2717, AID2721]", "type": "functional", "conditions": "Homo sapiens"}, "Paired box protein Pax-8": {"target": "Paired box protein Pax-8 (Homo sapiens, UniProt Q06710)", "sequence (Q06710 whole entry)": "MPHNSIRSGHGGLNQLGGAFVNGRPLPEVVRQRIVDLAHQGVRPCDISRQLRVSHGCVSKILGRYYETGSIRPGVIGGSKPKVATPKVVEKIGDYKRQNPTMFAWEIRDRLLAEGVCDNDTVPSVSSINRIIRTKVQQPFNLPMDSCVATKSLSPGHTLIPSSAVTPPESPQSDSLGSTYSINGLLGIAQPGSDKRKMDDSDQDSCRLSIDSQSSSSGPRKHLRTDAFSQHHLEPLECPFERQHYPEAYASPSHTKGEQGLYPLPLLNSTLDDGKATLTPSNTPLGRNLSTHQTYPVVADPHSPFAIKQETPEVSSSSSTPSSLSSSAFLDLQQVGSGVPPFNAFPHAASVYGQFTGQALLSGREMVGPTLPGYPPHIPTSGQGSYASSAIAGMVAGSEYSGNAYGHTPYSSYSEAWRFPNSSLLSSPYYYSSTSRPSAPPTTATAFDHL", "assay": "inhibitors of PAX8-driven TPO luciferase reporter, dose response, RMG-I cells, cherry-pick (AID 687027);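 further: luciferase reporter driven by Pax8 target thyroperoxidase promoter measured by SteadyGlo luminescence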", "type": "functional, cell-based"}, "INS1": {"tested_on": "INS1", "assay": "beta cell apoptosis inhibitors, cytokine rescue, dose response, luminescence, retest (AID 449756);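 further: cell death triggered by IL-1 beta plus TNF-alpha plus IFN-gamma mixture; protective hits raise ATP signal compared with cytokine alone wells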", "type": "functional, cell-based", "conditions": "Rattus norvegicus"}, "[2]": {"target": "Luciferin 4-monooxygenase (Photinus pyralis, UniProt P08659)", "sequence (P08659 whole entry)": "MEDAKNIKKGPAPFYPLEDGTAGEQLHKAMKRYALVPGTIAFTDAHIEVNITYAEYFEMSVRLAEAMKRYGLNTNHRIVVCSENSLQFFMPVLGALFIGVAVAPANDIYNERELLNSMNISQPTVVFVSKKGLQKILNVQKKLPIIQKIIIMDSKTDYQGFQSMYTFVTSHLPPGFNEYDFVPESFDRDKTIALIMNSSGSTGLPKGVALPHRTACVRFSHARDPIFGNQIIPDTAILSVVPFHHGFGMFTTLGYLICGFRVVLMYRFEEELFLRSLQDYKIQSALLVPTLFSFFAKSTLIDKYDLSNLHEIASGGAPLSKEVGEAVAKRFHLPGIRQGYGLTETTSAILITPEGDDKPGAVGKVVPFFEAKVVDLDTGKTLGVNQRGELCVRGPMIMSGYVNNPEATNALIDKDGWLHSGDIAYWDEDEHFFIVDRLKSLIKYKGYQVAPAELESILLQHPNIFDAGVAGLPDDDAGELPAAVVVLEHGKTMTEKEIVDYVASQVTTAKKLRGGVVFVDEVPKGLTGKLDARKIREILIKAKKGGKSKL", "assay": "firefly luciferase enzyme inhibitors, dose response, biochemical, luminescence (AID 1891)"}, "[3]": {"assay": "Luminescence Cell-Based Dose Confirmation HTS to Identify Inhibitors of Platelet Dense Granule Release. [Related pubchem assays: 1663 (Primary HTS), 1678 (Summary of Project)]", "type": "functional"}, "[4]": {"target": "T1, Calpain-2 catalytic subunit (Sus scrofa, UniProt P43367)", "T1 sequence (P43367 whole entry)": "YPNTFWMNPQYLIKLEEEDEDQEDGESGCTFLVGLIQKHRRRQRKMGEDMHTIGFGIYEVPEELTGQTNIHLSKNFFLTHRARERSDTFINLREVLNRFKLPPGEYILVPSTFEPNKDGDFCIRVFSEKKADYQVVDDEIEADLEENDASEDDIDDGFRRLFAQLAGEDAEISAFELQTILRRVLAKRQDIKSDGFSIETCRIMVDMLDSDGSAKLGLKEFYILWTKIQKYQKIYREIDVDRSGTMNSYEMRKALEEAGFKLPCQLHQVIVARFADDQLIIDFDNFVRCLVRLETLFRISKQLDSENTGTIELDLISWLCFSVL", "assay": "pig calpain II inhibitor potency, dose response, biochemical, fluorogenic peptide substrate (AID 1420)", "type": "functional"}, "[5]": {"target": "T2, Rac GTPase-activating protein 1 (Homo sapiens, UniProt Q9H0H5)", "T2 sequence (Q9H0H5 whole entry)": "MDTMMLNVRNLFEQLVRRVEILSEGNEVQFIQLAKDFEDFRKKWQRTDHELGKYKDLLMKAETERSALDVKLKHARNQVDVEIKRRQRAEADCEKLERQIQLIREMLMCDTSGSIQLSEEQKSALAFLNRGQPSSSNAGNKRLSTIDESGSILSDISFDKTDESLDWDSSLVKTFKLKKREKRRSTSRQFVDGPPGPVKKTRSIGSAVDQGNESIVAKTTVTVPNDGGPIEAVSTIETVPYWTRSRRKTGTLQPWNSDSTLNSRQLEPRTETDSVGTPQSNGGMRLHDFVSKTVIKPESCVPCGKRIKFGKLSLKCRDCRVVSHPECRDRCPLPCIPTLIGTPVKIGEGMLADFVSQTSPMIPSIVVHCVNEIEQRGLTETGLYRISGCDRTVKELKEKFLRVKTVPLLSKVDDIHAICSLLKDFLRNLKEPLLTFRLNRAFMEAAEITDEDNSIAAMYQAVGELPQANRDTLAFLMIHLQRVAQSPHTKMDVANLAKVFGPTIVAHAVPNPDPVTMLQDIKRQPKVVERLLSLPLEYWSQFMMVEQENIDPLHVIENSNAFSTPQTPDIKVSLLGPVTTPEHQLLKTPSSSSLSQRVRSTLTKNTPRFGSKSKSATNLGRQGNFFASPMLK", "assay": "MgcRacGAP GTPase-activating activity inhibitors, confirmation, biochemical, ADP Hunter fluorescence, primary and confirmatory (AID 624330)", "type": "functional"}, "[6]": {"assay": "Shn3 3'UTR reporter inhibitors, dose response, cell-based, Clone20 osteoblasts, firefly luciferase, cherry-picked (AID 624132)", "type": "functional"}, "[7]": {"assay": "HepG2 cell cytotoxicity, dose response, cytotoxicity control for Shn3 inhibitor project, CellTiter-Glo, cherry-picked (AID 624134)", "type": "functional, cell-based"}, "[8]": {"assay": "control 3'UTR Renilla luciferase suppression, dose response, counter-screen for Shn3 inhibitor project, cell-based, Clone20-Shn3RL, cherry-picked (AID 624133)", "type": "functional"}, "[9]": {"assay": "inhibitors of intracellular T. cruzi replication, confirmation, NIH3T3 host cells, beta-gal luminescence (AID 2044);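 further: luminescent beta-galactosidase reporter signal from transgenic T. cruzi replicating inside host cells; inhibitors lower the luminescence signal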", "type": "functional, cell-based"}, "[10]": {"assay": "cytotoxicity toward NIH3T3 fibroblasts, dose response, counter-screen, cell-based, ATP luminescence, mouse fibroblasts (AID 2010);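 further: cells exposed to compound for about 90 hours before reading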", "type": "functional"}, "[11]": {"assay": "inhibitors of firefly luciferase expression or activity, dose response, H4 neuroglioma cells, luminescence (AID 1990)", "type": "functional, cell-based"}, "[12]": {"assay": "Luminescence Cell-Based Dose Response HTS to Identify Inhibitors of 5'UTR Stem-Loop Driven Prion Protein mRNA Translation in H4 Neuroglioblastoma Cells. [Related pubchem assays: 1827 (Project Summary), 1813 (Primary HTS)]", "type": "functional"}, "[13]": {"assay": "inhibitors of SNCA 5'UTR-driven reporter translation, confirmation, H4 neuroglioma cells, luminescence (AID 1988)", "type": "functional, cell-based"}, "BJ [14]": {"tested_on": "BJ", "assay": "cytotoxicity toward BJ-TERT fibroblasts, dose response, cell-based, RAS-independent, luminescence (AID 1933)", "type": "functional", "conditions": "Homo sapiens"}, "BJ [15]": {"tested_on": "BJ", "assay": "cells", "type": "functional, cell-based", "conditions": "Homo sapiens"}, "BJ [16]": {"tested_on": "BJ", "assay": "cytotoxicity toward BJ-TERT-LT-ST fibroblasts, dose response, cell-based, RAS-independent, luminescence (AID 1935);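 further: BJ fibroblasts immortalized with TERT plus LT and ST oncogenes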", "type": "functional", "conditions": "Homo sapiens"}, "[17]": {"assay": "cytotoxicity toward DRD oncogenic fibroblasts, dose response, cell-based, non-viral oncogenic, luminescence (AID 1934)", "type": "functional", "conditions": "Homo sapiens"}}, "note": "Activity calls are given as the source filed them."}
{"smiles": "CCOC(=O)C1=C(CSc2nc3ccccc3s2)NC(=O)NC1c1ccc(OC)cc1", "note": "(stereo not given)", "values": [{"measurement": "AC50", "setting": "[1]", "value": "5.99 µM (active)"}]}
{"smiles": "CC1CCN(CCc2nc3cc(NS(=O)(=O)c4ccccc4)ccc3n2C)CC1", "values": [{"measurement": "AC50", "setting": "Paired box protein Pax-8", "value": "12.1 µM (active)"}]}
{"smiles": "Cc1ccc(NS(=O)(=O)c2cc([N+](=O)[O-])ccc2NN=C(S)Nc2cc(C)ccc2C)c(C)c1", "values": [{"measurement": "AC50", "setting": "[1]", "value": "1.12 µM (active)"}, {"measurement": "AC50", "setting": "INS1", "value": "4.42 µM (active)"}]}
{"smiles": "CC(=O)Nc1cccc(NC(=O)C(=O)Nc2ccc3c(c2)N(C(=O)C2CC2)CCC3)c1", "values": [{"measurement": "EC50", "setting": "[2]", "value": "31 µM (active)"}, {"measurement": "EC50", "setting": "[3]", "value": "> 112 µM (not active)"}]}
{"smiles": "O=C(CSc1ncc(C(F)(F)F)cc1Cl)N1CCN(S(=O)(=O)c2ccc(Cl)cc2)CC1", "values": [{"measurement": "IC50", "setting": "[4]", "value": "4.37 µM (not active)"}]}
{"smiles": "Cc1ccc(CCc2nnc(SCC(=O)Nc3cccc(Cl)c3)n2-c2ccccc2)o1", "values": [{"measurement": "AC50", "setting": "Paired box protein Pax-8", "value": "25.4 µM (active)"}]}
{"smiles": "O=C(CNCc1cccs1)Nc1ccc(N2CCCCCC2)cc1", "values": [{"measurement": "IC50", "setting": "[5]", "value": "107 µM (active)"}]}
{"smiles": "CCN(CC)S(=O)(=O)c1cccc(NC(=O)CNc2cccc(S(=O)(=O)N3CCOCC3)c2)c1", "values": [{"measurement": "AC50", "setting": "[6]", "value": "0.865 µM (active)"}, {"measurement": "AC50", "setting": "[7]", "value": "1.08 µM (active)"}, {"measurement": "AC50", "setting": "[8]", "value": "2.77 µM (active)"}]}
{"smiles": "CCOC(=O)C1=C(CNCCc2ccc(Cl)cc2)NC(=O)NC1c1ccc2c(c1)OCO2", "note": "(stereo not given)", "values": [{"measurement": "EC50", "setting": "[9]", "value": "13.3 µM (active)"}, {"measurement": "IC50", "setting": "[4]", "value": "> 50 µM (not active)"}, {"measurement": "EC50", "setting": "[10]", "value": "> 60 µM (not active)"}]}
{"smiles": "COCCCNC(=O)Cn1c(=O)n(CCCCCC(=O)Nc2ccccc2)c(=O)c2sccc21", "values": [{"measurement": "EC50", "setting": "[2]", "value": "> 112 µM (not active)"}, {"measurement": "EC50", "setting": "[3]", "value": "> 112 µM (not active)"}]}
{"smiles": "C=CCn1c(SCC(=O)c2[nH]c(C)c(C(=O)OC)c2C)nc2scc(-c3ccc(OC)c(OC)c3)c2c1=O", "values": [{"measurement": "EC50", "setting": "[11]", "value": "6.33 µM (active)"}, {"measurement": "EC50", "setting": "[12]", "value": "8.16 µM (active)"}, {"measurement": "EC50", "setting": "[13]", "value": "5.89 µM (active)"}, {"measurement": "AC50", "setting": "[6]", "value": "2.01 µM (active)"}, {"measurement": "AC50", "setting": "[7]", "value": "41.2 µM (active)"}, {"measurement": "AC50", "setting": "[8]", "value": "24.8 µM (active)"}]}
{"smiles": "O=C1Nc2ccccc2C1=Nc1ccc2[nH]c3ccccc3c2c1", "values": [{"measurement": "IC50", "setting": "[5]", "value": "16.6 µM (active)"}]}
{"smiles": "CSc1nc(N)nc2c1ncn2CC(=O)N1CCN(Cc2c(C)cc(C)cc2C)CC1", "values": [{"measurement": "AC50", "setting": "INS1", "value": "1.98 µM (active)"}, {"measurement": "AC50", "setting": "[6]", "value": "0.526 µM (active)"}, {"measurement": "AC50", "setting": "[7]", "value": "33.6 µM (active)"}, {"measurement": "AC50", "setting": "[8]", "value": "2.02 µM (active)"}]}
{"smiles": "Cc1ccccc1OCCn1cc(C(=S)N2CCCC2)c2ccccc21", "values": [{"measurement": "AC50", "setting": "[6]", "value": "24.3 µM (active)"}, {"measurement": "AC50", "setting": "[7]", "value": "> 70 µM (inactive)"}, {"measurement": "AC50", "setting": "[8]", "value": "20.9 µM (active)"}]}
{"smiles": "Cc1csc(=O)n1CC(=O)OC(C)C(=O)Nc1ccc(N(C)C)cc1", "note": "(stereo not given)", "values": [{"measurement": "IC50", "setting": "[5]", "value": "51.4 µM (active)"}]}
{"smiles": "CN1CCN(C(=O)/C=C/c2ccc([N+](=O)[O-])o2)CC1", "values": [{"measurement": "EC50", "setting": "BJ [14]", "value": "44.6 µM (active)"}, {"measurement": "EC50", "setting": "BJ [15]", "value": "> 150 µM (not active)"}, {"measurement": "EC50", "setting": "BJ [16]", "value": "> 150 µM (not active)"}, {"measurement": "EC50", "setting": "[17]", "value": "> 150 µM (not active)"}]}
{"smiles": "C[C@@H]1CN([C@H](C)CO)S(=O)(=O)c2ccc(C#Cc3ccncc3)cc2O[C@H]1CN(C)C(=O)Nc1ccc2c(c1)OCO2", "values": [{"measurement": "AC50", "setting": "Paired box protein Pax-8", "value": "3.68 µM (active)"}]}
{"smiles": "O=C(C[C@H]1CC[C@@H]2[C@H](COC[C@@H](O)CN2Cc2ccc(F)cc2)O1)NCc1ccccc1Cl", "values": [{"measurement": "AC50", "setting": "Paired box protein Pax-8", "value": "41.2 µM (active)"}]}
{"smiles": "C[C@@H]1CN([C@H](C)CO)C(=O)c2cc(NS(=O)(=O)c3ccc(F)cc3)ccc2O[C@@H]1CN(C)Cc1ccc(C(F)(F)F)cc1", "values": [{"measurement": "AC50", "setting": "Paired box protein Pax-8", "value": "22.2 µM (active)"}]}
{"smiles": "C[C@@H]1CCCCO[C@H](CN(C)Cc2ccc(C(F)(F)F)cc2)[C@@H](C)CN([C@@H](C)CO)C(=O)c2cc(NS(=O)(=O)c3cccs3)ccc2O1", "values": [{"measurement": "AC50", "setting": "Paired box protein Pax-8", "value": "7.62 µM (active)"}]}
{"smiles": "O=C(CNS(=O)(=O)c1ccccc1)N/N=C/c1ccc(O)cc1", "values": [{"measurement": "IC50", "setting": "[5]", "value": "60 µM (active)"}]}
{"smiles": "COc1ccc(/C=N/Nc2nn3cnnc3c3ccccc23)cc1", "values": [{"measurement": "IC50", "setting": "[4]", "value": "5.99 µM (not active)"}]}
{"smiles": "CCN(/C=N/C1=NN(c2cccc(C(F)(F)F)c2)CC1)CC", "values": [{"measurement": "IC50", "setting": "[5]", "value": "32.9 µM (active)"}]}
{"smiles": "CC(C)NC(=S)N/N=C/c1ccc2c(c1)OCCO2", "values": [{"measurement": "IC50", "setting": "[4]", "value": "> 50 µM (not active)"}]}
{"smiles": "COc1cc(/C=N/NC(=O)C(C)Nc2nnc(O)nc2O)ccc1O", "note": "(stereo not given)", "values": [{"measurement": "IC50", "setting": "[5]", "value": "57.2 µM (active)"}]}
